For series [1] the following is noted: in comparison to a 15 mg dose of hydrocodone.
A short description of series [2]: Example 4: six-way crossover study, naltrexone (12% w/w) on oxycodone-induced euphoria, with pulse oximetry (SpO2). The class given is in vivo, human. The text has this: As a safety component of this study, pulse oximetry was monitored routinely to monitor for signs and symptoms of oxycodone-induced respiratory depression.
For series [3] the following is noted: after oral administration; cited from earlier work.
For series [4] the following is noted: cited from earlier work.
The conditions of series [5]: cited from earlier work. The source holds these as a separate data set.
For series [6] the following is noted: patients; versus equivalent dose of morphine; cited from earlier work.

Where a name gives a salt, the structure may show the parent alone.

In the case of `CCC(=O)C(CC(C)N(C)C)(c1ccccc1)c1ccccc1` (stereo not shown) [methadone], in series [1], the equianalgesic calculated dose is listed as 9.0 mg. With `O=C1CC[C@@]2(O)[C@H]3Cc4ccc(O)c5c4[C@@]2(CCN3CC2CC2)[C@H]1O5` [naltrexone], the “effect on euphoric effects of oxycodone” value in series [2] (oral oxycodone 60 mg + naltrexone 7.2 mg (12%)) is given as “abating the euphoric effects of oxycodone 60 mg”. Also, in series [2] (oral oxycodone 60 mg + naltrexone 7.2 mg (12%) vs oxycodone 60 mg and placebo, opioid-experienced adult subjects), the “effect on respiratory depressant effects of oxycodone (SpO2, pulse oximetry)” value was “attenuated the respiratory depressant effects of oxycodone”. The duration of action in series [3] is around 24 h. The “time of absorption following oral administration (rapidly absorbed)” value in series [4] was at most 1 h. The oral bioavailability in series [4] (oral administration) was 5-40%. As for `C[C@H]1[C@H]2Cc3ccc(O)cc3[C@]1(C)CCN2CC1CC1` [cyclazocine], the duration of action in series [3] is around 24 h. Regarding `COc1ccc2c3c1OC1C(=O)CC[C@H]4[C@@H](C2)N(C)CC[C@]314` (stereo partly shown) [hydrocodone, 4,5-epoxy-3-methoxy-17-methylmorphinan-6-one], in series [1], the equianalgesic calculated dose was 15.0 mg.

On to `O=C1CC[C@@]2(O)[C@H]3Cc4ccc(O)c5c4[C@@]2(CCN3CC2CC2)[C@H]1O5` [naltrexone HCl, naltrexone hydrochloride], for which, in series [5], the solubility in water entry is on record as “about 100 mg/cc”. With `CN1CC[C@]23CCCC[C@H]2[C@H]1Cc1ccc(O)cc13` [levorphanol], the equianalgesic calculated dose in series [1] is on record as 1.8 mg.

As to `COc1ccc2c3c1O[C@H]1[C@@H](O)C=C[C@H]4[C@@H](C2)N(C)CC[C@@]341` [codeine], the equianalgesic calculated dose in series [1] was 90.0 mg. For the compound `COc1ccc2c3c1O[C@H]1C(=O)CC[C@@]4(O)[C@@H](C2)N(C)CC[C@]314` [oxycodone], the equianalgesic calculated dose in series [1] is reported as 13.5 mg. For the same compound, in series [6], the “extent and speed of onset of induced respiratory depression” value was “dose dependent and greater than an equivalent dose of morphine”.

The values are drawn from patent publication US20160045449A1, “Formulations and Methods for Attenuating Respiratory Depression Induced by Opioid Overdose” (Alpharma Pharmaceuticals LLC, priority 2010, published 2016).
